For orientation: IC50 means the concentration that gives 50% inhibition.

T1 sequence (P56817 46-501): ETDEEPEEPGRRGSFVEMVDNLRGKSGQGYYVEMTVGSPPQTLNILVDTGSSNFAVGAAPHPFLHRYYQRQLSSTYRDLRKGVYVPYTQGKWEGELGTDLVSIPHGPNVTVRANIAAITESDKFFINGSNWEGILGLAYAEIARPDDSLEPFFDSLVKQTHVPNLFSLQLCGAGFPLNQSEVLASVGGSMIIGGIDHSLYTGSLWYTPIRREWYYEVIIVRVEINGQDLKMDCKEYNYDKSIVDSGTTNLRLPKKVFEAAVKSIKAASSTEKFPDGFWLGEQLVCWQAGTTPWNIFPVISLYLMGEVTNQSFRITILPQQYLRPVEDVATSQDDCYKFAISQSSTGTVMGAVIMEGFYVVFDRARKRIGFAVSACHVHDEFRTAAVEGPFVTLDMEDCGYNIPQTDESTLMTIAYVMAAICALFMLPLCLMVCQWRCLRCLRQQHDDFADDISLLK

The assay has as its target T1, purified BACE protein (β-secretase) (Homo sapiens, UniProt P56817).
T1 construct: made in house
In words: Competitive Radioligand Binding Assay (RLBA). The note with it: β-secretase inhibition; displacement of tritiated Compound A from BACE-coated plates, pH 4.1; read-out: IC50 in vitro. The protocol:
Competitive Radioligand Binding Assay (RLBA)
96 well microplates (Optiplate Packard) are coated with purified BACE protein (see e.g. GB 2,385,124: Examples 1 and 2) using a concentration of 1 μg/ml in 30 mM sodium citrate buffer adjusted to pH 5.5. The coating is achieved by incubation of 100 μl/well for 1-3 days at 4° C. The plate is then washed with 2×300 μl/well of 10 mM citrate pH 4.1. To each well 100 μl binding buffer (30 mM citrate, 100 mM NaCl, 0.1% BSA, pH 4.1) is dispensed. The test compound is added in 5 μl from a DMSO stock solution or appropriate dilutions. To this the tracer (tritiated Compound A, see e.g. GB 2,385,124: Example 4) is added in 10 µl/well from a 10 μCi/ml stock solution in binding buffer. After incubation for 1.5-2 hours in a humid chamber at ambient temperature the plate is washed with 2×300 μl/well water and flipped on a dry towel. Following the addition of 50 μl/well Micro-Scint20 (Packard) the plate is sealed and vibrated for 5 seconds. The bound radioactivity is counted on a Topcount (Packard). Total binding is typically between 2000 and 10000 cpm/well depending mainly on the purity and concentration of the BACE protein. Non-specific binding as assessed by competition with >1 μM peptidic inhibitor (Bachem # H-4848) is typically between 30 and 300 cpm/well. The IC-50 values are calculated by Microsoft Excel FIT.
With `CCCOc1cc(C(=O)N[C@@H](Cc2ccccc2)P(=O)(O)CC(C)C(=O)Nc2ccccc2)cc(N2CCCC2=O)c1` (stereo partly drawn) [Compound I-5, {(R)-1-[3-(2-oxo-pyrrolidin-1-yl)-5-propoxy-benzoylamino]-2-phenyl-ethyl}-(2-phenylcarbamoyl-propyl)-phosphinic acid], the concentration for half-maximal inhibition (IC50) worked out at 50 nM.
The figure for `CCCN(CCC)C(=O)c1cccc(C(=O)N[C@@H](Cc2ccccc2)P(=O)(O)CC(C)C(=O)NC2CCCCC2)c1` (stereo partly drawn) [Compound I-42, (2-cyclohexylcarbamoyl-propyl)-[(R)-1-(3-dipropylcarbamoyl-benzoylamino)-2-phenyl-ethyl]-phosphinic acid] is 20 nM.
Consider `CCCN(CCC)C(=O)c1cccc(C(=O)N[C@@H](Cc2ccccc2)P(=O)(O)CC(C)C(=O)Nc2ccccc2)c1` (mixture of isomers) [Compound I-18, [(R)-1-(3-dipropylcarbamoyl-benzoylamino)-2-phenyl-ethyl]-(2-phenylcarbamoyl-propyl)-phosphinic acid], for which the half-inhibitory concentration (IC50) worked out at 10 nM.
The figure for `CCCN(CCC)C(=O)c1cccc(C(=O)N[C@@H](Cc2ccccc2)P(=O)(O)CC(C)C(=O)NCCC(C)C)c1` (mixture of isomers) [Compound I-37, [(R)-1-(3-dipropylcarbamoyl-benzoylamino)-2-phenyl-ethyl]-[2-(3-methyl-butylcarbamoyl)-propyl]-phosphinic acid] is 40 nM; for `CCCN(CCC)C(=O)c1cccc(C(=O)NC(Cc2ccccc2)P(=O)(O)CC(C(=O)Nc2ccc(C)cc2)C(C)C)c1` (centres unmarked) [Compound I-14, [1-(3-dipropylcarbamoyl-benzoylamino)-2-phenyl-ethyl]-(3-methyl-2-p-tolylcarbamoyl-butyl)-phosphinic acid] it is 200 nM.

These data come from patent US7345082B2, “Phosphinic acids” (Hoffmann-La Roche Inc., priority 2003, dated 2008).
